Assay results as given in ChEMBL document CHEMBL1201862, “PubChem BioAssay data set” (2004).
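All cell lines were grown in 96-well plates and treated with compound for 48 hours. Here, GI50 denotes the concentration required for 50% inhibition of growth.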 Activity calls are given as the source filed them. No stated cut-off is given here; in the data, active = GI50 up to about 1.1 µM and inactive = higher.

Columns and labels:
Test in all cases: inhibition of tumour cell growth, NCI panel, 48 h
[1] = test system: COLO 205
[2] = test system: KM12
[3] = test system: KM-20L2
[4] = test system: 786-0
[5] = test system: DLD-1
[6] = test system: EKVX
[7] = test system: Malme-3M
[8] = test system: SNB-19
[9] = test system: SF-268
[10] = test system: OVCAR-3
[11] = test system: OVCAR-5
[12] = test system: SK-MEL-28
[13] = test system: LXFL 529
[14] = test system: NCI-H460
[15] = test system: HOP-62
[16] = test system: CAKI-1
[17] = test system: ACHN
[18] = test system: SF-539
[19] = test system: OVCAR-8
[20] = test system: HOP-92
[21] = test system: HCT-15
[22] = test system: SK-OV-3
[23] = test system: RXF 393
[24] = test system: NCI-H226
[25] = test system: RPMI-8226
[26] = test system: CCRF-CEM
[27] = test system: RXF 631
[28] = test system: A498
[29] = test system: HL-60
[30] = test system: SW-620
[31] = test system: HCC 2998
[32] = test system: A549
[33] = test system: HCT-116
[34] = test system: UACC-62
[35] = test system: NCI-H23
[36] = test system: TK-10
[37] = test system: DMS-273
[38] = test system: SN12C
[39] = test system: M14
[40] = test system: NCI-H522
[41] = test system: HT-29
[42] = test system: SF-295
[43] = test system: U-251
[44] = test system: DMS-114
[45] = test system: HOP-18
[46] = test system: XF498
[47] = test system: K562
[48] = test system: SNB-75
[49] = test system: M19-MEL
[50] = test system: SK-MEL-5
[51] = test system: OVCAR-4
[52] = test system: SK-MEL-2
[53] = test system: LOX IMVI
[54] = test system: MOLT-4
[55] = test system: IGROV-1
[56] = test system: UO-31
[57] = test system: UACC-257
[58] = test system: SNB-78
[59] = test system: SR

Compound: O=C1CCC(O)=C1O
- GI50 [1]: > 100 µM (inactive)
- GI50 [2]: > 100 µM (inactive)
- GI50 [3]: > 100 µM (inactive)
- GI50 [4]: > 100 µM (inactive)
- GI50 [5]: > 100 µM (inactive)
- GI50 [6]: > 100 µM (inactive)
- GI50 [7]: > 100 µM (inactive)
- GI50 [8]: > 100 µM (inactive)
- GI50 [9]: > 100 µM (inactive)
- GI50 [10]: > 100 µM (inactive)
- GI50 [11]: > 100 µM (inactive)
- GI50 [12]: > 100 µM (inactive)
- GI50 [13]: > 100 µM (inactive)
- GI50 [14]: > 100 µM (inactive)
- GI50 [15]: > 100 µM (inactive)
- GI50 [16]: > 100 µM (inactive)
- GI50 [17]: > 100 µM (inactive)
- GI50 [18]: > 100 µM (inactive)
- GI50 [19]: > 100 µM (inactive)
- GI50 [20]: > 100 µM (inactive)
- GI50 [21]: > 100 µM
- GI50 [22]: > 100 µM (inactive)
- GI50 [23]: > 100 µM (inactive)
- GI50 [24]: > 100 µM (inactive)
- GI50 [25]: > 100 µM (inactive)
- GI50 [26]: > 100 µM (inactive)
- GI50 [27]: > 100 µM (inactive)
- GI50 [28]: > 100 µM (inactive)
- GI50 [29]: > 100 µM (inactive)
- GI50 [30]: > 100 µM (inactive)
- GI50 [31]: > 100 µM (inactive)
- GI50 [32]: > 100 µM (inactive)
- GI50 [33]: > 100 µM (inactive)
- GI50 [34]: > 100 µM (inactive)
- GI50 [35]: > 100 µM (inactive)
- GI50 [36]: > 100 µM (inactive)
- GI50 [37]: > 100 µM (inactive)
- GI50 [38]: > 100 µM (inactive)
- GI50 [39]: > 100 µM (inactive)
- GI50 [40]: > 100 µM (inactive)
- GI50 [41]: > 100 µM (inactive)
- GI50 [42]: > 100 µM (inactive)
- GI50 [43]: > 100 µM (inactive)
- GI50 [44]: > 100 µM (inactive)
- GI50 [45]: > 100 µM (inactive)
- GI50 [46]: > 100 µM (inactive)
- GI50 [47]: > 100 µM (inactive)
- GI50 [48]: > 100 µM (inactive)
- GI50 [49]: > 100 µM (inactive)
- GI50 [50]: > 100 µM (inactive)
- GI50 [51]: > 100 µM (inactive)
- GI50 [52]: > 100 µM (inactive)
- GI50 [53]: > 100 µM (inactive)
- GI50 [54]: > 100 µM (inactive)
- GI50 [55]: > 100 µM (inactive)

Compound: O=c1ccn(/C=C/C(O)C(O)CO)c(=O)[nH]1 (stereo not given)
- GI50 [1]: > 100 µM (inactive)
- GI50 [2]: 21.7 µM (inactive)
- GI50 [3]: > 100 µM (inactive)
- GI50 [4]: > 100 µM (inactive)
- GI50 [5]: > 100 µM (inactive)
- GI50 [6]: > 100 µM (inactive)
- GI50 [7]: > 100 µM (inactive)
- GI50 [8]: > 100 µM (inactive)
- GI50 [9]: > 100 µM (inactive)
- GI50 [10]: > 100 µM (inactive)
- GI50 [11]: > 100 µM (inactive)
- GI50 [12]: > 100 µM (inactive)
- GI50 [13]: > 100 µM (inactive)
- GI50 [15]: > 100 µM (inactive)
- GI50 [16]: > 100 µM (inactive)
- GI50 [17]: > 100 µM (inactive)
- GI50 [56]: > 100 µM (inactive)
- GI50 [18]: > 100 µM (inactive)
- GI50 [19]: > 100 µM (inactive)
- GI50 [21]: > 100 µM
- GI50 [22]: > 100 µM (inactive)
- GI50 [24]: > 100 µM (inactive)
- GI50 [25]: > 100 µM (inactive)
- GI50 [26]: > 100 µM (inactive)
- GI50 [27]: > 100 µM (inactive)
- GI50 [28]: > 100 µM (inactive)
- GI50 [29]: > 100 µM (inactive)
- GI50 [30]: > 100 µM (inactive)
- GI50 [57]: > 100 µM (inactive)
- GI50 [31]: > 100 µM (inactive)
- GI50 [32]: > 100 µM (inactive)
- GI50 [33]: > 100 µM (inactive)
- GI50 [34]: > 100 µM (inactive)
- GI50 [35]: > 100 µM (inactive)
- GI50 [36]: > 100 µM (inactive)
- GI50 [37]: > 100 µM (inactive)
- GI50 [38]: > 100 µM (inactive)
- GI50 [40]: > 100 µM (inactive)
- GI50 [41]: > 100 µM (inactive)
- GI50 [42]: > 100 µM (inactive)
- GI50 [43]: > 100 µM (inactive)
- GI50 [44]: > 100 µM (inactive)
- GI50 [45]: > 100 µM (inactive)
- GI50 [46]: > 100 µM (inactive)
- GI50 [47]: > 100 µM (inactive)
- GI50 [48]: > 100 µM (inactive)
- GI50 [49]: > 100 µM (inactive)
- GI50 [50]: > 100 µM (inactive)
- GI50 [51]: > 100 µM (inactive)
- GI50 [52]: > 100 µM (inactive)
- GI50 [53]: > 100 µM (inactive)
- GI50 [58]: > 100 µM (inactive)
- GI50 [54]: > 100 µM (inactive)
- GI50 [55]: > 100 µM (inactive)

Compound: O=C(O)C1CC2CC(=O)C1C2 (stereo not given)
- GI50 [1]: > 100 µM (inactive)
- GI50 [2]: > 100 µM (inactive)
- GI50 [3]: > 100 µM (inactive)
- GI50 [4]: > 100 µM (inactive)
- GI50 [5]: > 100 µM (inactive)
- GI50 [6]: > 100 µM (inactive)
- GI50 [7]: > 100 µM (inactive)
- GI50 [8]: > 100 µM (inactive)
- GI50 [9]: > 100 µM (inactive)
- GI50 [10]: > 100 µM (inactive)
- GI50 [11]: > 100 µM (inactive)
- GI50 [12]: > 100 µM (inactive)
- GI50 [13]: > 100 µM (inactive)
- GI50 [14]: > 100 µM (inactive)
- GI50 [15]: > 100 µM (inactive)
- GI50 [16]: > 100 µM (inactive)
- GI50 [17]: > 100 µM (inactive)
- GI50 [56]: > 100 µM (inactive)
- GI50 [18]: > 100 µM (inactive)
- GI50 [19]: > 100 µM (inactive)
- GI50 [20]: > 100 µM (inactive)
- GI50 [22]: > 100 µM (inactive)
- GI50 [23]: > 100 µM (inactive)
- GI50 [24]: > 100 µM (inactive)
- GI50 [25]: > 100 µM (inactive)
- GI50 [26]: > 100 µM (inactive)
- GI50 [27]: > 100 µM (inactive)
- GI50 [28]: > 100 µM (inactive)
- GI50 [29]: > 100 µM (inactive)
- GI50 [30]: > 100 µM (inactive)
- GI50 [57]: > 100 µM (inactive)
- GI50 [32]: > 100 µM (inactive)
- GI50 [33]: > 100 µM (inactive)
- GI50 [34]: > 100 µM (inactive)
- GI50 [35]: > 100 µM (inactive)
- GI50 [36]: > 100 µM (inactive)
- GI50 [37]: > 100 µM (inactive)
- GI50 [38]: > 100 µM (inactive)
- GI50 [39]: > 100 µM (inactive)
- GI50 [40]: > 100 µM (inactive)
- GI50 [41]: > 100 µM (inactive)
- GI50 [42]: > 100 µM (inactive)
- GI50 [43]: > 100 µM (inactive)
- GI50 [45]: > 100 µM (inactive)
- GI50 [46]: > 100 µM (inactive)
- GI50 [47]: > 100 µM (inactive)
- GI50 [48]: > 100 µM (inactive)
- GI50 [49]: > 100 µM (inactive)
- GI50 [50]: > 100 µM (inactive)
- GI50 [59]: > 100 µM (inactive)
- GI50 [51]: > 100 µM (inactive)
- GI50 [52]: > 100 µM (inactive)
- GI50 [53]: > 100 µM (inactive)
- GI50 [58]: > 100 µM (inactive)
- GI50 [54]: > 100 µM (inactive)
- GI50 [55]: > 100 µM (inactive)
